The results in this text go back to ChEMBL document CHEMBL1133141, “Synthesis and biological activities of hapalosin derivatives with modification at the C12 position” (2000).

The test system of one assay is A2780. Description: MDR-reversing activity was measured by vincristine accumulation in the multidrug resistant 2780AD, a subline of A2780 ovarian carcinoma cells at 10 µg/mL.
For the next assay, the system named is HT-1080. Description: Compound was tested for the induction of apoptosis in human fibrosarcoma HT1080 cell line; No induction of apoptosis up to 10 ug/mL. The assay is classed as functional, cell-based.

In the case of `CCCCCCC[C@H]1OC(=O)C[C@@H](O)[C@H](Cc2ccccc2)N(C)C(=O)[C@H](CC(C)C)OC(=O)[C@H]1C`, in the assay with A2780, the “Vincristine accumulation (% of control)” value came out at 288%. The Concentration result with HT-1080 is “No induction”. In the case of `CCCCCCC[C@H]1OC(=O)C[C@@H](O)[C@H](Cc2ccccc2)N(C)C(=O)[C@H](C)OC(=O)[C@H]1C`, the “Vincristine accumulation (% of control)” value in the assay on A2780 came out at 441%. Moreover, the Concentration entry in the assay with HT-1080 is “No induction”. Regarding `CCCCCCC[C@H]1OC(=O)C[C@@H](O)[C@H](Cc2ccccc2)N(C)C(=O)[C@H](C(C)C)OC(=O)[C@H]1C` [HAPALOSIN], in the assay with A2780, the “Vincristine accumulation (% of control)” value is on record as 267%. The Concentration entry in the assay with HT-1080 was “No induction”. The like results for `CCCCCCC[C@H]1OC(=O)C[C@@H](O)[C@H](Cc2ccccc2)N(C)C(=O)[C@H](Cc2ccccc2)OC(=O)[C@H]1C` were, in that order, 254% and “No induction”. For `CCCCCCC[C@H]1OC(=O)C[C@@H](O)[C@H](Cc2ccccc2)N(C)C(=O)[C@H](CCSC)OC(=O)[C@H]1C` the same measures were 269% and “No induction”. Regarding `CCCCCCC[C@H]1OC(=O)C[C@@H](O)[C@H](Cc2ccccc2)N(C)C(=O)[C@H](C(C)CC)OC(=O)[C@H]1C` (stereo partly drawn), the “Vincristine accumulation (% of control)” value in the assay on A2780 is listed as 308%. Besides, in the assay with HT-1080, the Concentration entry was “No induction”. For the compound `COc1ccc(CCN(C)CCCC(C#N)(c2ccc(OC)c(OC)c2)C(C)C)cc1OC` (stereo not drawn) [VERAPAMIL], the “Vincristine accumulation (% of control)” value in the assay on A2780 is recorded as 350%.
